Assay results from patent US20220315572A1, “SUBSTITUTED CYANOPYRROLIDINES WITH ACTIVITY AS USP30 INHIBITORS” (MISSION THERAPEUTICS LIMITED, priority 2019, published 2022).

How the values were obtained:
Cathepsin L = Cathepsin L (Homo sapiens, UniProt P07711); assay: Cathepsin IC50, cathepsin L; type: biochemical
USP30 = target: T1, USP30 (Homo sapiens, UniProt Q70CQ3); assay: USP30 biochemical IC50 assay (fluorescence polarisation); details: USP30 biochemical IC50 assay, exemplary compounds; read-out: IC50
T1 construct: purchased Boston Biochem E582
T1 sequence (Q70CQ3 57-517 limits assumed): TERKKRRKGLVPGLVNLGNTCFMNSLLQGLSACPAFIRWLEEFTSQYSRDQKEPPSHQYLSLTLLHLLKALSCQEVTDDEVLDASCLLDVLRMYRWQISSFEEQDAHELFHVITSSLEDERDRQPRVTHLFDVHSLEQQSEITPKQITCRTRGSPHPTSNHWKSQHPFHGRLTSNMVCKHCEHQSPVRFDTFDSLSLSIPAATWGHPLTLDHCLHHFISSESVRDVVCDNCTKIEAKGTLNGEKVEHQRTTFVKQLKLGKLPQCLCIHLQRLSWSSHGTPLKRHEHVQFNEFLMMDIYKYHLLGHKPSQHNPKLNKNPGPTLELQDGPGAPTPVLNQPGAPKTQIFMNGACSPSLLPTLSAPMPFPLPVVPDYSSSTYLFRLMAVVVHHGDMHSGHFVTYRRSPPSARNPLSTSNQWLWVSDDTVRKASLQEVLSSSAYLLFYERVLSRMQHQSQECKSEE
Description: Dilution plates were prepared at 21 times the final concentration (2100 μM for a final concentration of 100 μM) in 50% DMSO in a 96-well polypropylene V-bottom plate (Greiner #651201). A typical 8-point dilution series would be 100, 30, 10, 3, 1, 0.3, 0.1, 0.03 μM final. Reactions were performed in duplicate in black 384 well plates (small volume, Greiner 784076) in a final reaction volume of 21 μl. Either […] of 50% DMSO or diluted compound was added to the plate. USP30 (Boston Biochem #E582) was diluted in reaction buffer (40 mM Tris, pH 7.5, 0.005% Tween 20, 0.5 mg/ml BSA, 5 mM beta-mercaptoethanol) to achieve a final assay concentration of 4 nM, and 10 μl of diluted USP30 was added to the compound. Enzyme and compound were incubated for 30 min at room temp. Reactions were initiated by the addition of 50 nM of TAMRA labelled peptide linked to ubiquitin via an iso-peptide bond as fluorescence polarisation substrate. Reactions were read immediately after addition of substrate and following a 2-hour incubation at room temperature. Readings were performed on a Pherastar Plus (BMG Labtech). λ Excitation 540 nm; λ Emission 590 nm.

[1] = system: HCT116 human colorectal carcinoma cells; assay: In vitro cytotoxicity (Cell Tox), alamarBlue; type: cell-based
From the text: There is also a need for compounds that have a favourable safety profile, which may be measured by a variety of standard in vitro and in vivo methods. A cell toxicity counter-screen may be used to assay the anti-proliferative/cytotoxic effect in a particular cell line (e.g. HCT116) by fluorometric detection of rezasurin (alamarBlue) to resofurin in response to mitochondrial activity.
In Vitro Cytotoxicity (Cell Tox): Measured in HCT116 human colorectal carcinoma cells using alamarBlue as the assay endpoint. Compound cytotoxicity was measured over a period of 96-hour continual compound exposure.

Cathepsin S = Cathepsin S (Homo sapiens, UniProt P25774); assay: Cathepsin IC50, cathepsin S; type: biochemical
Cathepsin S, sequence (P25774 115-331, species assumed): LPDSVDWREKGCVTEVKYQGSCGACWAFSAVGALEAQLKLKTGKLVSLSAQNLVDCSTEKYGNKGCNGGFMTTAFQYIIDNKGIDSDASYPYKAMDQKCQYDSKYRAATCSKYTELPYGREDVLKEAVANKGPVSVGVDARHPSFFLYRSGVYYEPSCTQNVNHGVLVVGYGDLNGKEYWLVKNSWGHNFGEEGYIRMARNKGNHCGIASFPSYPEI

[2] = system: USP2, USP10, USP16, USP21, USP22, USP25, USP28, USP35, USP46; assay: DUB biochemical IC50 assays, nine DUBs; details: range over the nine DUBs
UCHL1 = target: T2, UCHL1 (Homo sapiens, UniProt P09936); assay: DUB biochemical IC50 assay, UCHL1
T2 sequence (P09936 1-223): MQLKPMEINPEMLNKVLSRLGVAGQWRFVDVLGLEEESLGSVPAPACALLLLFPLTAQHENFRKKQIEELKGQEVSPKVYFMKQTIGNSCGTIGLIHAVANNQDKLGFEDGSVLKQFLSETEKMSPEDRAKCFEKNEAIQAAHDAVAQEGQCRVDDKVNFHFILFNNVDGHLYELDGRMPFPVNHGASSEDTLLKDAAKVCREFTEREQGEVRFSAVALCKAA

Cathepsin V = Cathepsin V (Homo sapiens, UniProt O60911); assay: Cathepsin IC50, cathepsin V; type: biochemical
Cathepsin V, sequence (O60911 114-334, species assumed): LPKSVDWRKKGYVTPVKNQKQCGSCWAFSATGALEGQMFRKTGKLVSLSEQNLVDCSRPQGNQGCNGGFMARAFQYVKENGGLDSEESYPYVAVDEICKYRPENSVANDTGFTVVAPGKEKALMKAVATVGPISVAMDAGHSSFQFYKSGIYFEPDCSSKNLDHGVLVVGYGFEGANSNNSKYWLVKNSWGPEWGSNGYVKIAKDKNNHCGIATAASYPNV

Endogenous USP30 = target: T3, Endogenous USP30 (Homo sapiens, UniProt Q70CQ3); assay: USP30 endogenous cellular target engagement western blot assay (Cell TE WB); type: cell-based; details: Hela cells stably overexpressing YFP-Parkin, 1 hour
T3 construct: USP30 endogenous cellular target engagement western blot (WB) assay; endogenous in cells; host or cells: HeLa stably overexpressing YFP-Parkin
T3 sequence (Q70CQ3 1-517): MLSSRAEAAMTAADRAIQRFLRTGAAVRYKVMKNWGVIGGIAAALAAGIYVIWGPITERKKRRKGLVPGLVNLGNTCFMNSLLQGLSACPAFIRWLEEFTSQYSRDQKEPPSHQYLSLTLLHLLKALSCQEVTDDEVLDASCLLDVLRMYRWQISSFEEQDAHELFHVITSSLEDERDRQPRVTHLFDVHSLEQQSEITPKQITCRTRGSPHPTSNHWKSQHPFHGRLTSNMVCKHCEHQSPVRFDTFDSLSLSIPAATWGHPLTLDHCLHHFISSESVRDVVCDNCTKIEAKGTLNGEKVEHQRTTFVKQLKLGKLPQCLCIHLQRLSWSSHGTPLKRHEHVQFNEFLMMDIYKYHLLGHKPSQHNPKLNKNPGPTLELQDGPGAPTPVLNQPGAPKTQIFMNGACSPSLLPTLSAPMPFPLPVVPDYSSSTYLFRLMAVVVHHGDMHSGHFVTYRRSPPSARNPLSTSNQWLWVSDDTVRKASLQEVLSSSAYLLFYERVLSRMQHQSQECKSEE
Description: Hela cells stably overexpressing YFP-Parkin were seeded into 6 well dishes. Once adhered, cells were treated with appropriate concentrations of test compounds or vehicle control for 1 hour at 37° C., 5% CO2. Whole cell lysates were prepared by scraping the cells into cold PBS, centrifuging and lysing in lysis buffer (50 mM Tris-base, pH 7.5, 50 mM NaCl, 1% NP-40/Igepal CA-630, 2 mM MgCl2, 10% Glycerol, 5 mM beta-mercaptoethanol, cOmplete mini tablets EDTA free (Roche), PhosStop tablets (Roche)) for 10 mins. The equivalent of 20 μg of protein from the cleared cell lysate was incubated with a final conc of 2.5 μM HA-Ahx-Ahx-Ub-VME probe at room temperature. The reaction was stopped by addition of 5×SDS sample loading buffer and proteins separated by SDS PAGE and western blotting. USP30 was detected using an anti-USP30 Sheep S746D antibody (MRC PPU Reagents and Services) and a rabbit anti sheep secondary IgG (H+L) horseradish peroxidase conjugated (Thermo #31480) and visualised using ECL reagent (GE #RPN2109) on a GE LAS4000 imager. Target engagement was measured by quantitation of the bands corresponding to USP30 and USP30 bound to the Ub-VME probe and expression of this proportion compared to vehicle treated control.
Cell TE WB: USP30 endogenous cellular target engagement western blot (WB) assay. Assays the activity of compounds against USP30 in cells using an irreversible activity probe to monitor USP30 activity.

Cathepsins B, K, L, S, V = assay: Cathepsin IC50, range over B, K, L, S, V; type: biochemical
Cathepsin K = target: T4, Cathepsin K (Homo sapiens, UniProt P43235); assay: Cathepsin IC50, cathepsin K; type: biochemical
T4 sequence (P43235 115-329): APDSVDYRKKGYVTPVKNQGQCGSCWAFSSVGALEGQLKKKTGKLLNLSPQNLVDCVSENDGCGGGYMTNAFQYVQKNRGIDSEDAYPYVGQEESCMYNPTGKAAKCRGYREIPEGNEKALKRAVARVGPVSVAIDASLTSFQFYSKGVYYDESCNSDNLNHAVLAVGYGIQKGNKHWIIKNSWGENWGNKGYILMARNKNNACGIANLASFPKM

Cathepsin B = Cathepsin B (Homo sapiens, UniProt P07858); assay: Cathepsin IC50, cathepsin B; type: biochemical

Cathepsin L, sequence (P07711 114-333, species assumed): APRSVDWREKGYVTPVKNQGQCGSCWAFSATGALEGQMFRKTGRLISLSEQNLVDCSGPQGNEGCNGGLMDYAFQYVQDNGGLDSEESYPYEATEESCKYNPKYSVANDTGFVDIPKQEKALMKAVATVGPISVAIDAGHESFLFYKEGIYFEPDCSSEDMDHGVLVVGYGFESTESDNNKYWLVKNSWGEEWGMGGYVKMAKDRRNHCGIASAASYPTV

COC[C@@H]1C[C@@H](NC(=O)c2nnc(-c3cc(C#N)ccc3OC)o2)CN1C#N [Example 4, 5-(5-Cyano-2-methoxyphenyl)-N-((3R,5S)-1-cyano-5-(methoxymethyl)pyrrolidine-3-yl)-1,3,4-oxadiazole-2-carboxamide]
IC50 (Cathepsin L): 54.5 µM
IC50 (USP30): 0.029 µM
Cell Tox EC50/USP30 IC50 [1]: >1000
EC50 ([1]; Homo sapiens, HCT-116, 96-hour continual compound exposure, alamarBlue): > 30 µM
IC50 (Cathepsin S): 226 µM
DUB selectivity preference for USP30 v 9 DUBs [2]: 365-10300
IC50 ([2]; Ref. Ex. C excl. USP22, Ref. Ex. D excl. USP2, 46): ≥ 10.6 µM
DUB selectivity preference for USP30 v UCHL1 (UCHL1): 10300
IC50 (UCHL1): > 300 µM
IC50 (Cathepsin V): 223 µM
EC50 (Endogenous USP30): 0.087 µM
Selectivity preference for USP30 v cathepsins (Cathepsins B, K, L, S, V; range over cathepsins B, K, L, S, V): 1500-7800
IC50 (Cathepsins B, K, L, S, V; range over the five cathepsins): 44.5 to 226 µM
IC50 (Cathepsin K): 44.5 µM
IC50 (Cathepsin B): 111 µM
